We go through five compounds from ChEMBL document CHEMBL2150967, “Novel Quinolinones as Activators of AMP Activated Protein Kinase: Patent Highlight” (ACS Med Chem Lett, 2012).

In assay [1] the target is AMP-activated protein kinase, AMPK. Kind of assay: (§1) Activation of recombinant human AMPK by FRET assay.
For assay [2], the target named is AMP-activated protein kinase, AMPK (Homo sapiens) (UniProt P54646+O43741+P54619+Q9UGJ0+Q9Y478+Q13131+Q9UGI9). The description is as §1.

As to `Cc1nc(-c2c(O)c3cc(-c4ccc(N5CCCCC5)cc4)c(Cl)cc3[nH]c2=O)cs1`, the pEC50 (commonly the negative decadic logarithm of the EC50, by convention in mol/L) in assay [1] is reported as below 5.5. The pEC200 in assay [2] was below 5.
Regarding `COc1cccc(-c2ccc(-c3cc4c(O)c(-n5cccn5)c(=O)[nH]c4cc3Cl)cc2)c1`, the pEC50 in assay [1] is on record as below 5.5. Further, the pEC200 in assay [2] is below 5.
Regarding `Cc1cc(-c2c(O)c3cc(-c4ccc(N(C)C)cc4)c(Cl)cc3[nH]c2=O)no1`, the pEC50 in assay [1] is listed as below 5.5. Moreover, the pEC200 in assay [2] is below 5.
Take `Cc1ccn(-c2c(O)c3cc(-c4ccc(N5CCCC5)cc4)c(Cl)cc3[nH]c2=O)n1`: in assay [1], the pEC50 is reported as below 5.5. Besides, the pEC200 in assay [2] is below 5.
Turning to `Cc1nc(-c2c(O)c3cc(-c4ccc(N(C)C)cc4)c(Cl)cc3[nH]c2=O)c(C)s1`, the pEC50 in assay [1] is recorded as below 5.5. In addition, in assay [2], the pEC200 is below 5.
